The results in this text go back to ChEMBL document CHEMBL2010656, “Design, synthesis and evaluation of isaindigotone derivatives as dual inhibitors for acetylcholinesterase and amyloid beta aggregation” (Bioorg Med Chem, 2012).

Calls of active or inactive are those of the source. No cut-off for these calls is given here. A value given as a limit tells only on which side of the number the result lay.

A short description of test [1]: Inhibition of amyloid beta (1 to 40) self-mediated aggregation at 10 uM after 72 hrs by thioflavin T based fluorometric assay relative to control.
For test [2], the target named is Acetylcholinesterase (Electrophorus electricus, UniProt O42275).
Acetylcholinesterase, sequence (O42275 whole entry): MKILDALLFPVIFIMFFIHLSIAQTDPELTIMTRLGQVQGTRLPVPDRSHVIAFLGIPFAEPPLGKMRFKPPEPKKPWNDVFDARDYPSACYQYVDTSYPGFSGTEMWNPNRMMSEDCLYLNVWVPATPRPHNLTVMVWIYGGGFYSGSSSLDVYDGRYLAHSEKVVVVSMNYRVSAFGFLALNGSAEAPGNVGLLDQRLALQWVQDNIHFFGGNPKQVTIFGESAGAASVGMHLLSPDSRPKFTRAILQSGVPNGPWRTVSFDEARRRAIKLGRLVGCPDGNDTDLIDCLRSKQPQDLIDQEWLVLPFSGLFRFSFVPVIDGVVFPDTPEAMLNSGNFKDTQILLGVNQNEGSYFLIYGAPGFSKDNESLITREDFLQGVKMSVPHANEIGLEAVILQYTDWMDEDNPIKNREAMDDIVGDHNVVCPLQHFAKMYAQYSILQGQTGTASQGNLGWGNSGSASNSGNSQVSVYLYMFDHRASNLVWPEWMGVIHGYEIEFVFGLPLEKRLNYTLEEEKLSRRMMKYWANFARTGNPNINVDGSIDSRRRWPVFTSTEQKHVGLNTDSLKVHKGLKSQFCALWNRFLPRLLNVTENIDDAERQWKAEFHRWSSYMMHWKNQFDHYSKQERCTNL
Description: Inhibition of electric eel acetylcholinesterase using acetylcholine chloride as substrate preincubated for 15 mins before substrate addition by Ellman's method
Test [3] addresses Cholinesterase (Equus caballus, UniProt P81908).
Description: Inhibition of equine serum butyrylcholinesterase using butyrylthiocholine chloride as substrate preincubated for 15 mins before substrate addition by Ellman's method
Test [4] in a line: Inhibition of amyloid beta (1 to 40) self-mediated aggregation assessed as reduction in beta-sheet structure formation at 20 uM after 3 days by CD spectropolarimetric analysis.
A short description of test [5]: Inhibition of amyloid beta (1 to 40) self-mediated aggregation assessed as inhibition of extended fibrils formation at 10 uM after 4 days by transmission electron microscopic analysis.
Test [6] in a line: Inhibition of amyloid beta (1 to 40) self-mediated aggregation assessed as change in alpha-helix structure formation at 20 uM after 3 days by CD spectropolarimetric analysis.
Test [7] has as its target Acetylcholinesterase (Electrophorus electricus) (UniProt O42275). The test can be described thus: Mixed type inhibition of electric eel acetylcholinesterase preincubated for 15 mins by Lineweaver-Burk plot analysis.

Cholinesterase, sequence (P81908 whole entry): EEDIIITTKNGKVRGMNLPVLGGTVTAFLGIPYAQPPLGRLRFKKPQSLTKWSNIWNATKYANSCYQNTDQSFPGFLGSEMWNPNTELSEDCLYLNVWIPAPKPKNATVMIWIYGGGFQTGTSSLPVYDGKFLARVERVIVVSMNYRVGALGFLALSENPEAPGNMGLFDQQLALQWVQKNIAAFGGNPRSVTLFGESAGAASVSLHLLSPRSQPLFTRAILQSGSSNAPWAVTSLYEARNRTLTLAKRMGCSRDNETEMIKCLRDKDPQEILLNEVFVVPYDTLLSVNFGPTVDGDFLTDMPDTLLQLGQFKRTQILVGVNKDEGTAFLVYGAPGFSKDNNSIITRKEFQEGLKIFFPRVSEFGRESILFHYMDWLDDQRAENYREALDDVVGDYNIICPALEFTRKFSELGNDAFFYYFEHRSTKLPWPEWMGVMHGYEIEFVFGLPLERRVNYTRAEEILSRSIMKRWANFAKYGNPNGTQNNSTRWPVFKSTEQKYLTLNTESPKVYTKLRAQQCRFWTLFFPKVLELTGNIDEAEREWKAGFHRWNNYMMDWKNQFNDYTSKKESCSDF
Acetylcholinesterase (Electrophorus electricus), sequence (O42275 24-633 limits assumed): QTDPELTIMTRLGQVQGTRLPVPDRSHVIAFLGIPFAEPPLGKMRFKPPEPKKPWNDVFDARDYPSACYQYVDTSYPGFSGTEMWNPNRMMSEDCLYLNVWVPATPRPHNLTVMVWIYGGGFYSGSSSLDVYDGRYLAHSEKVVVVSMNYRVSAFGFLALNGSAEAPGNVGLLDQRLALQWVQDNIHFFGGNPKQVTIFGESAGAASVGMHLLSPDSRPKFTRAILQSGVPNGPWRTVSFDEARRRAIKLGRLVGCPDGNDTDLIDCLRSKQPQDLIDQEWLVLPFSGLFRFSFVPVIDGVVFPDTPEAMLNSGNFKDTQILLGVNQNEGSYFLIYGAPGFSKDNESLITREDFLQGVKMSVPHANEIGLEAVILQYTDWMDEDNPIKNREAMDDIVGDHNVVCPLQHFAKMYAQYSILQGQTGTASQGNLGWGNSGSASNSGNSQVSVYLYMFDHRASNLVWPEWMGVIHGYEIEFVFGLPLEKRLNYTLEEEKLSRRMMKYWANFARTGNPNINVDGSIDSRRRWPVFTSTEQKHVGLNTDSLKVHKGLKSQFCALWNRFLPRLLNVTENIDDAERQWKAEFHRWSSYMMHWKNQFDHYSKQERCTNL

In general, inhibition refers to the relative decrease from the control value, in per cent. In test [1], `COc1cc(/C=C/C(=O)CC(=O)/C=C/c2ccc(O)c(OC)c2)ccc1O` came in with an inhibition of 48.8%.
Usually IC50 stands for the concentration at which inhibition is half-maximal. Read a high IC50 as weaker potency. In the case of `O=C(NCCCN1CCCC1)c1ccc(/C=C2\CCn3c2nc2cc(Cl)ccc2c3=O)cc1`, the inhibition in test [1] turned out to be 36.2%. Also, the IC50 is 1440 nM in test [2] and 610 nM in test [3].
In test [1], `O=C(CCN1CCCCC1)Nc1ccc(/C=C2\CCCn3c2nc2cc(Cl)ccc2c3=O)cc1` came in with an inhibition of 52.9%. Further, the values for the half-maximal inhibitory concentration (IC50) in test [2] and in test [3] were 31 nM and 5990 nM, respectively.
Regarding `O=C(CCN1CCCCC1)Nc1ccc(/C=C2\CCn3c2nc2cc(Cl)ccc2c3=O)cc1`, the inhibition in test [1] amounted to 49.8%. Further, the half-maximal inhibitory concentration (IC50) in test [2] stood at 23 nM; in test [3], 2880 nM.
The molecule `CN(C)CCNC(=O)c1ccc(/C=C2\CCn3c2nc2cc(Cl)ccc2c3=O)cc1` returned an inhibition in test [1] of 36.8%. The IC50 in test [2] was 160 nM; in test [3] it was above 20000 nM.
With `O=C(NCCN1CCCC1)c1ccc(/C=C2\CCCn3c2nc2cc(Cl)ccc2c3=O)cc1`, the inhibition in test [1] came out at 53.6%. Moreover, the IC50 was 1510 nM in test [2] and 6750 nM in test [3].
In test [1], `CCN(CC)CCC(=O)Nc1ccc(/C=C2\CCn3c2nc2cc(Cl)ccc2c3=O)cc1` registered an inhibition of 39%. In addition, the figures for the IC50 in test [2] and in test [3] were 60 nM and 6440 nM, respectively.
As to `O=C(CCN1CCCC1)Nc1ccc(/C=C2\CCCn3c2nc2cc(Cl)ccc2c3=O)cc1`, the inhibition in test [1] was determined as 53.5%. Further, the values for the IC50 in test [2] and in test [3] were above 1000 nM and 6450 nM, respectively.
The corresponding values for `O=C(CC[n+]1ccccc1)Nc1ccc(/C=C2\CCn3c2nc2cc(Cl)ccc2c3=O)cc1` are 49%, 49 nM and 1700 nM.
For the molecule `CCN(CC)CCC(=O)Nc1ccc(/C=C2\CCCn3c2nc2cc(Cl)ccc2c3=O)cc1`, the inhibition in test [1] came out at 54.8%. Moreover, the figures for the IC50 in test [2] and in test [3] were above 1000 nM and 2340 nM, respectively.
In turn, `O=C(CC[n+]1ccccc1)Nc1ccc(/C=C2\CCCn3c2nc2cc(Cl)ccc2c3=O)cc1` returned an inhibition in test [1] of 33%. Further, the results for the IC50 in test [2] and in test [3] were 820 nM and 3380 nM, respectively.
`O=C(NCCN1CCCC1)c1ccc(/C=C2\CCn3c2nc2cc(Cl)ccc2c3=O)cc1` gave an inhibition in test [1] of 57.4%. Further, the figures for the IC50 in test [2] and in test [3] were 45 nM and 11100 nM, respectively.
With `CN(C)CCCNC(=O)c1ccc(/C=C2\CCCn3c2nc2cc(Cl)ccc2c3=O)cc1`, in test [1], the inhibition came to 49.8%. The figures for the IC50 in test [2] and in test [3] were 2050 nM and 6640 nM, respectively.
`O=C(CCN1CCCC1)Nc1ccc(/C=C2\CCn3c2nc2cc(Cl)ccc2c3=O)cc1` showed an inhibition in test [1] of 62.3%. In addition, the inhibition entry in test [4], in test [5] and in test [7] was “Active” in each case. The inhibition result in test [6] was “inactive”. Further, the values for the IC50 in test [2] and in test [3] were 41 nM and 3820 nM, respectively.
As for `CN(C)CCCNC(=O)c1ccc(/C=C2\CCn3c2nc2cc(Cl)ccc2c3=O)cc1`, the inhibition in test [1] was 56.5%. The IC50 in test [2] was found to be 1420 nM; in test [3] it was 5180 nM.
With `O=C(NCCCN1CCCC1)c1ccc(/C=C2\CCCn3c2nc2cc(Cl)ccc2c3=O)cc1`, the inhibition in test [1] came out at 53.3%. Moreover, the results for the IC50 in test [2] and in test [3] were 1210 nM and 500 nM, respectively.
On the same counts, the results for `CN(C)CCNC(=O)c1ccc(/C=C2\CCCn3c2nc2cc(Cl)ccc2c3=O)cc1` are 54.5%, 360 nM and above 40000 nM.
